Reference: US10597388B2, “Pyridazinone herbicides” (FMC CORPORATION, priority 2014, dated 2020)

How the values were obtained:
Experiment in all cases: Test D controlled growth environment herbicide test, pre- and postemergence
Assay type in all cases: in vivo
[1] = test system: windgrass (Apera spica-venti)
In short: (§1)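 Pre-emergence: seeds sown in silt loam soil were sprayed with compound in a non-phytotoxic solvent mix containing surfactant. Post-emergence: plants at 2 to 18 cm (1- to 4-leaf stage) in peat moss/vermiculite medium got the same formulation. Visual 0–100 rating versus controls after 14 to 21 d.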

[2] = test system: canarygrass (Phalaris minor)
In short: as §1

[3] = test system: barley, winter (winter barley, Hordeum vulgare)
In short: as §1

[4] = test system: Russian thistle (Salsola kali)
In short: as §1

[5] = test system: buckwheat, wild (wild buckwheat, Polygonum convolvulus)
In short: as §1

[6] = test system: oat, wild (wild oat, Avena fatua)
In short: as §1

[7] = test system: pigweed (Amaranthus retroflexus)
In short: as §1

[8] = test system: chickweed (common chickweed, Stellaria media)
In short: as §1

[9] = test system: galium (catchweed bedstraw, Galium aparine)
In short: as §1

[10] = test system: bromegrass, downy (downy bromegrass, Bromus tectorum)
In short: as §1

[11] = test system: radish, wild (wild radish, Raphanus raphanistrum)
In short: as §1

kochia (Kochia scoparia) = test system: kochia (Kochia scoparia)
In short: as §1

[12] = test system: field violet (Viola arvensis)
In short: as §1

[13] = Postemergence, 31 g ai/ha, scale 0 to 100 (0 no effect, 100 complete control)
[14] = Postemergence, 125 g ai/ha, visual rating on scale 0 (no effect) to 100 (complete control), 14 to 21 d
[15] = Postemergence, 250 g ai/ha, scale 0 to 100 (0 no effect, 100 complete control)
[16] = Preemergence, 125 g ai/ha, scale 0 to 100 (0 no effect, 100 complete control)
[17] = Preemergence, 250 g ai/ha, scale 0 to 100 (0 no effect, 100 complete control)
[18] = postemergence, 62 g ai/ha, scale 0 to 100, 0 no effect, 100 complete control
[19] = Preemergence, 62 g ai/ha, scale 0 to 100 (0 no effect, 100 complete control)

Compound: CCOC(=O)Oc1c(C)nn(C)c(=O)c1-c1c(C)sc2c(C)cc(C)cc12 [Compound 83]
- Windgrass plant response rating [1, 13]: 75
- Plant response rating, Windgrass [1, 14]: 90
- Plant response rating, Windgrass [1, 15]: 95
- Plant response rating (scale of 0 to 100), Windgrass ([1]; Preemergence, 31 g ai/ha): 15
- Plant response rating (scale of 0 to 100), Windgrass ([1]; Preemergence, 62 g ai/ha): 75
- Plant response rating, Windgrass [1, 16]: 90
- Plant response rating, Windgrass [1, 17]: 95
- Plant response rating, Windgrass [1, 18]: 85
- Canarygrass plant response rating [2, 13]: 50
- Plant response rating, Canarygrass [2, 14]: 80
- Plant response rating, Canarygrass [2, 15]: 90
- Plant response rating (scale of 0 to 100), Canarygrass ([2]; Preemergence, 31 g ai/ha): 65
- Plant response rating (scale of 0 to 100), Canarygrass ([2]; Preemergence, 62 g ai/ha): 85
- Plant response rating, Canarygrass [2, 16]: 90
- Plant response rating, Canarygrass [2, 17]: 100
- Plant response rating, Canarygrass [2, 18]: 75
- Barley, Winter plant response rating [3, 13]: 0
- Plant response rating, Barley, Winter [3, 14]: 0
- Plant response rating, Barley, Winter [3, 15]: 15
- Plant response rating (scale of 0 to 100), Barley, Winter ([3]; Preemergence, 31 g ai/ha): 0
- Plant response rating, Barley, Winter [3, 19]: 0
- Plant response rating, Barley, Winter [3, 16]: 0
- Plant response rating, Barley, Winter [3, 17]: 40
- Plant response rating, Barley, Winter [3, 18]: 0
- Russian Thistle plant response rating [4, 13]: 75
- Plant response rating, Russian Thistle [4, 14]: 80
- Plant response rating, Russian Thistle [4, 15]: 85
- Plant response rating (scale of 0 to 100), Russian Thistle ([4]; Preemergence, 31 g ai/ha): 0
- Plant response rating (scale of 0 to 100), Russian Thistle ([4]; Preemergence, 62 g ai/ha): 0
- Plant response rating, Russian Thistle [4, 16]: 15
- Plant response rating, Russian Thistle [4, 17]: 0
- Plant response rating, Russian Thistle [4, 18]: 80
- Buckwheat, Wild plant response rating [5, 13]: 100
- Plant response rating, Buckwheat, Wild [5, 14]: 100
- Plant response rating, Buckwheat, Wild [5, 15]: 100
- Plant response rating (scale of 0 to 100), Buckwheat, Wild ([5]; Preemergence, 31 g ai/ha): 0
- Plant response rating, Buckwheat, Wild [5, 19]: 0
- Plant response rating, Buckwheat, Wild [5, 16]: 0
- Plant response rating, Buckwheat, Wild [5, 17]: 25
- Plant response rating, Buckwheat, Wild [5, 18]: 100
- Oat, Wild plant response rating [6, 13]: 80
- Plant response rating, Oat, Wild [6, 14]: 90
- Plant response rating, Oat, Wild [6, 15]: 95
- Plant response rating (scale of 0 to 100), Oat, Wild ([6]; Preemergence, 31 g ai/ha): 80
- Plant response rating (scale of 0 to 100), Oat, Wild ([6]; Preemergence, 62 g ai/ha): 85
- Plant response rating, Oat, Wild [6, 16]: 90
- Plant response rating, Oat, Wild [6, 17]: 90
- Plant response rating, Oat, Wild [6, 18]: 85
- Pigweed plant response rating [7, 13]: 100
- Plant response rating, Pigweed [7, 14]: 100
- Plant response rating, Pigweed [7, 15]: 100
- Plant response rating (scale of 0 to 100), Pigweed ([7]; Preemergence, 31 g ai/ha): 100
- Plant response rating (scale of 0 to 100), Pigweed ([7]; Preemergence, 62 g ai/ha): 100
- Plant response rating, Pigweed [7, 16]: 100
- Plant response rating, Pigweed [7, 17]: 100
- Plant response rating, Pigweed [7, 18]: 100
- Chickweed plant response rating [8, 13]: 100
- Plant response rating, Chickweed [8, 14]: 100
- Plant response rating, Chickweed [8, 15]: 100
- Plant response rating (scale of 0 to 100), Chickweed ([8]; Preemergence, 31 g ai/ha): 100
- Plant response rating (scale of 0 to 100), Chickweed ([8]; Preemergence, 62 g ai/ha): 100
- Plant response rating, Chickweed [8, 16]: 100
- Plant response rating, Chickweed [8, 17]: 100
- Plant response rating, Chickweed [8, 18]: 100
- Galium plant response rating [9, 13]: 100
- Plant response rating, Galium [9, 14]: 100
- Plant response rating, Galium [9, 15]: 100
- Plant response rating (scale of 0 to 100), Galium ([9]; Preemergence, 31 g ai/ha): 0
- Plant response rating (scale of 0 to 100), Galium ([9]; Preemergence, 62 g ai/ha): 25
- Plant response rating, Galium [9, 16]: 40
- Plant response rating, Galium [9, 17]: 85
- Plant response rating, Galium [9, 18]: 100
- Bromegrass, Downy plant response rating [10, 13]: 25
- Plant response rating, Bromegrass, Downy [10, 14]: 50
- Plant response rating, Bromegrass, Downy [10, 15]: 70
- Plant response rating (scale of 0 to 100), Bromegrass, Downy ([10]; Preemergence, 31 g ai/ha): 20
- Plant response rating, Bromegrass, Downy [10, 19]: 30
- Plant response rating, Bromegrass, Downy [10, 16]: 60
- Plant response rating, Bromegrass, Downy [10, 17]: 40
- Plant response rating, Bromegrass, Downy [10, 18]: 35
- Radish, Wild plant response rating [11, 13]: 75
- Plant response rating, Radish, Wild [11, 14]: 100
- Plant response rating, Radish, Wild [11, 15]: 100
- Plant response rating (scale of 0 to 100), Radish, Wild ([11]; Preemergence, 31 g ai/ha): 30
- Plant response rating (scale of 0 to 100), Radish, Wild ([11]; Preemergence, 62 g ai/ha): 70
- Plant response rating, Radish, Wild [11, 16]: 90
- Plant response rating, Radish, Wild [11, 17]: 90
- Plant response rating, Radish, Wild [11, 18]: 90
- Kochia plant response rating (kochia (Kochia scoparia); [13]): 70
- Plant response rating, Kochia (kochia (Kochia scoparia); [14]): 80
- Plant response rating, Kochia (kochia (Kochia scoparia); [15]): 90
- Plant response rating (scale of 0 to 100), Kochia (kochia (Kochia scoparia); Preemergence, 31 g ai/ha): 0
- Plant response rating (scale of 0 to 100), Kochia (kochia (Kochia scoparia); Preemergence, 62 g ai/ha): 0
- Plant response rating, Kochia (kochia (Kochia scoparia); [16]): 30
- Plant response rating, Kochia (kochia (Kochia scoparia); [17]): 50
- Plant response rating, Kochia (kochia (Kochia scoparia); [18]): 75
- Field Violet plant response rating [12, 13]: 90
- Plant response rating, Field Violet [12, 14]: 100
- Plant response rating, Field Violet [12, 15]: 100
- Plant response rating (scale of 0 to 100), Field Violet ([12]; Preemergence, 31 g ai/ha): 75
- Plant response rating (scale of 0 to 100), Field Violet ([12]; Preemergence, 62 g ai/ha): 80
- Plant response rating, Field Violet [12, 16]: 95
- Plant response rating, Field Violet [12, 17]: 100
- Plant response rating, Field Violet [12, 18]: 80
